Results from the supplement of paper PMC10307832.

Assays:
Experiment in all cases: relative viability (nuclei count vs DMSO), 5 days (fraction); higher = more cells survive
AGI-6780 + Palbociclib = compound: O=C(Nc1cccc(C(F)(F)F)c1)Nc1cc(S(=O)(=O)NC2CC2)ccc1-c1ccsc1 [AGI-6780] + CC(=O)c1c(C)c2cnc(Nc3ccc(N4CCNCC4)cn3)nc2n(C2CCCC2)c1=O [Palbociclib] (partner 0.5 µM)
Summary of the method: (§1)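 For relative viability, nuclei counts in treated wells were divided by those in vehicle wells. Lung cancer cell lines had been pin-tool dosed in 1536-well plates the day after seeding and cultured for 5 days, then fixed and stained in one step (final 0.05% Triton X-100, 1% formaldehyde, 1 ug/ml Hoechst) and imaged at 4×. Doses were one drug alone or a fixed anchor-drug dose plus five library-drug doses (not always all listed) in √10 steps, and values are duplicate-plate medians.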

AGI-6780 + Dasatinib = compound: O=C(Nc1cccc(C(F)(F)F)c1)Nc1cc(S(=O)(=O)NC2CC2)ccc1-c1ccsc1 [AGI-6780] + Cc1nc(Nc2ncc(C(=O)Nc3c(C)cccc3Cl)s2)cc(N2CCN(CCO)CC2)n1 [Dasatinib] (partner 0.075 µM)
Summary of the method: as §1

AGI-6780 + Vorinostat = compound: O=C(Nc1cccc(C(F)(F)F)c1)Nc1cc(S(=O)(=O)NC2CC2)ccc1-c1ccsc1 [AGI-6780] + O=C(CCCCCCC(=O)Nc1ccccc1)NO [Vorinostat] (partner 1 µM)
Summary of the method: as §1

AGI-6780 + Pemetrexed = compound: O=C(Nc1cccc(C(F)(F)F)c1)Nc1cc(S(=O)(=O)NC2CC2)ccc1-c1ccsc1 [AGI-6780] + Nc1nc2[nH]cc(CCc3ccc(C(=O)N[C@@H](CCC(=O)O)C(=O)O)cc3)c2c(=O)[nH]1 [Pemetrexed] (partner 0.2 µM)
Summary of the method: as §1

Cell Line: RERF-LC-KJ
- relative viability (AGI-6780 + Palbociclib; first compound 0.08 µM): 1.06
- relative viability (AGI-6780 + Palbociclib; first compound 0.253 µM): 1.09
- relative viability (AGI-6780 + Palbociclib; first compound 0.8 µM): 1.07
- relative viability (AGI-6780 + Palbociclib; first compound 2.53 µM): 0.93
- relative viability (AGI-6780 + Palbociclib; first compound 8 µM): 1.01
- relative viability (AGI-6780 + Dasatinib; first compound 0.08 µM): 0.895
- relative viability (AGI-6780 + Dasatinib; first compound 0.253 µM): 0.93
- relative viability (AGI-6780 + Dasatinib; first compound 0.8 µM): 0.822
- relative viability (AGI-6780 + Dasatinib; first compound 2.53 µM): 0.511
- relative viability (AGI-6780 + Dasatinib; first compound 8 µM): 0.667
- relative viability (AGI-6780 + Vorinostat; first compound 0.08 µM): 0.784
- relative viability (AGI-6780 + Vorinostat; first compound 0.253 µM): 0.724
- relative viability (AGI-6780 + Vorinostat; first compound 0.8 µM): 0.795
- relative viability (AGI-6780 + Vorinostat; first compound 2.53 µM): 0.596
- relative viability (AGI-6780 + Vorinostat; first compound 8 µM): 0.697
- relative viability (AGI-6780 + Pemetrexed; first compound 0.08 µM): 0.497
- relative viability (AGI-6780 + Pemetrexed; first compound 0.253 µM): 0.466
- relative viability (AGI-6780 + Pemetrexed; first compound 0.8 µM): 0.469
- relative viability (AGI-6780 + Pemetrexed; first compound 2.53 µM): 0.497
- relative viability (AGI-6780 + Pemetrexed; first compound 8 µM): 0.466

Cell Line: SK-LU-1
- relative viability (AGI-6780 + Palbociclib; first compound 0.08 µM): 0.422
- relative viability (AGI-6780 + Palbociclib; first compound 0.253 µM): 0.411
- relative viability (AGI-6780 + Palbociclib; first compound 0.8 µM): 0.284
- relative viability (AGI-6780 + Palbociclib; first compound 2.53 µM): 0.409
- relative viability (AGI-6780 + Palbociclib; first compound 8 µM): 0.39
- relative viability (AGI-6780 + Dasatinib; first compound 0.08 µM): 0.172
- relative viability (AGI-6780 + Dasatinib; first compound 0.253 µM): 0.183
- relative viability (AGI-6780 + Dasatinib; first compound 2.53 µM): 0.135
- relative viability (AGI-6780 + Dasatinib; first compound 8 µM): 0.17
- relative viability (AGI-6780 + Vorinostat; first compound 0.08 µM): 0.816
- relative viability (AGI-6780 + Vorinostat; first compound 0.253 µM): 0.798
- relative viability (AGI-6780 + Vorinostat; first compound 0.8 µM): 0.534
- relative viability (AGI-6780 + Vorinostat; first compound 2.53 µM): 0.732
- relative viability (AGI-6780 + Vorinostat; first compound 8 µM): 0.786
- relative viability (AGI-6780 + Pemetrexed; first compound 0.08 µM): 0.981
- relative viability (AGI-6780 + Pemetrexed; first compound 0.253 µM): 0.93
- relative viability (AGI-6780 + Pemetrexed; first compound 0.8 µM): 0.765
- relative viability (AGI-6780 + Pemetrexed; first compound 2.53 µM): 0.984
- relative viability (AGI-6780 + Pemetrexed; first compound 8 µM): 1.11

Cell Line: SK-MES-1
- relative viability (AGI-6780 + Palbociclib; first compound 0.08 µM): 0.31
- relative viability (AGI-6780 + Palbociclib; first compound 0.253 µM): 0.346
- relative viability (AGI-6780 + Palbociclib; first compound 0.8 µM): 0.27
- relative viability (AGI-6780 + Palbociclib; first compound 2.53 µM): 0.285
- relative viability (AGI-6780 + Palbociclib; first compound 8 µM): 0.294
- relative viability (AGI-6780 + Dasatinib; first compound 0.08 µM): 0.379
- relative viability (AGI-6780 + Dasatinib; first compound 0.253 µM): 0.428
- relative viability (AGI-6780 + Dasatinib; first compound 0.8 µM): 0.367
- relative viability (AGI-6780 + Dasatinib; first compound 2.53 µM): 0.24
- relative viability (AGI-6780 + Dasatinib; first compound 8 µM): 0.338
- relative viability (AGI-6780 + Vorinostat; first compound 0.08 µM): 1.21
- relative viability (AGI-6780 + Vorinostat; first compound 0.253 µM): 1.17
- relative viability (AGI-6780 + Vorinostat; first compound 0.8 µM): 1
- relative viability (AGI-6780 + Vorinostat; first compound 2.53 µM): 1.03
- relative viability (AGI-6780 + Vorinostat; first compound 8 µM): 0.994
- relative viability (AGI-6780 + Pemetrexed; first compound 0.08 µM): 0.991
- relative viability (AGI-6780 + Pemetrexed; first compound 0.253 µM): 0.929
- relative viability (AGI-6780 + Pemetrexed; first compound 0.8 µM): 0.836
- relative viability (AGI-6780 + Pemetrexed; first compound 2.53 µM): 0.985
- relative viability (AGI-6780 + Pemetrexed; first compound 8 µM): 0.929

Cell Line: SW 900
- relative viability (AGI-6780 + Palbociclib; first compound 0.08 µM): 0.629
- relative viability (AGI-6780 + Palbociclib; first compound 0.253 µM): 0.527
- relative viability (AGI-6780 + Palbociclib; first compound 0.8 µM): 0.496
- relative viability (AGI-6780 + Palbociclib; first compound 2.53 µM): 0.566
- relative viability (AGI-6780 + Palbociclib; first compound 8 µM): 0.552
- relative viability (AGI-6780 + Dasatinib; first compound 0.08 µM): 0.542
- relative viability (AGI-6780 + Dasatinib; first compound 0.253 µM): 0.675
- relative viability (AGI-6780 + Dasatinib; first compound 0.8 µM): 0.555
- relative viability (AGI-6780 + Dasatinib; first compound 2.53 µM): 0.587
- relative viability (AGI-6780 + Dasatinib; first compound 8 µM): 0.571
- relative viability (AGI-6780 + Vorinostat; first compound 0.08 µM): 0.485
- relative viability (AGI-6780 + Vorinostat; first compound 0.253 µM): 0.484
- relative viability (AGI-6780 + Vorinostat; first compound 0.8 µM): 0.707
- relative viability (AGI-6780 + Vorinostat; first compound 2.53 µM): 0.548
- relative viability (AGI-6780 + Vorinostat; first compound 8 µM): 0.586
- relative viability (AGI-6780 + Pemetrexed; first compound 0.08 µM): 0.461
- relative viability (AGI-6780 + Pemetrexed; first compound 0.253 µM): 0.484
- relative viability (AGI-6780 + Pemetrexed; first compound 0.8 µM): 0.457
- relative viability (AGI-6780 + Pemetrexed; first compound 2.53 µM): 0.524
- relative viability (AGI-6780 + Pemetrexed; first compound 8 µM): 0.469

Cell Line: SW 1573
- relative viability (AGI-6780 + Palbociclib; first compound 0.08 µM): 0.399
- relative viability (AGI-6780 + Palbociclib; first compound 0.253 µM): 0.332
- relative viability (AGI-6780 + Palbociclib; first compound 0.8 µM): 0.479
- relative viability (AGI-6780 + Palbociclib; first compound 8 µM): 0.37
- relative viability (AGI-6780 + Dasatinib; first compound 0.08 µM): 0.467
- relative viability (AGI-6780 + Dasatinib; first compound 0.253 µM): 0.516
- relative viability (AGI-6780 + Dasatinib; first compound 0.8 µM): 0.442
- relative viability (AGI-6780 + Dasatinib; first compound 8 µM): 0.531
- relative viability (AGI-6780 + Vorinostat; first compound 0.08 µM): 0.792
- relative viability (AGI-6780 + Vorinostat; first compound 0.253 µM): 0.75
- relative viability (AGI-6780 + Vorinostat; first compound 0.8 µM): 0.999
- relative viability (AGI-6780 + Vorinostat; first compound 8 µM): 0.972
- relative viability (AGI-6780 + Pemetrexed; first compound 0.08 µM): 0.866
- relative viability (AGI-6780 + Pemetrexed; first compound 0.253 µM): 0.787
- relative viability (AGI-6780 + Pemetrexed; first compound 0.8 µM): 0.921
- relative viability (AGI-6780 + Pemetrexed; first compound 8 µM): 0.874

Cell Line: UMC-11
- relative viability (AGI-6780 + Palbociclib; first compound 0.08 µM): 0.34
- relative viability (AGI-6780 + Palbociclib; first compound 0.253 µM): 0.324
- relative viability (AGI-6780 + Palbociclib; first compound 0.8 µM): 0.334
- relative viability (AGI-6780 + Palbociclib; first compound 8 µM): 0.336
- relative viability (AGI-6780 + Dasatinib; first compound 0.08 µM): 0.474
- relative viability (AGI-6780 + Dasatinib; first compound 0.253 µM): 0.524
- relative viability (AGI-6780 + Dasatinib; first compound 0.8 µM): 0.662
- relative viability (AGI-6780 + Dasatinib; first compound 8 µM): 0.488
- relative viability (AGI-6780 + Vorinostat; first compound 0.08 µM): 0.407
- relative viability (AGI-6780 + Vorinostat; first compound 0.253 µM): 0.426
- relative viability (AGI-6780 + Vorinostat; first compound 0.8 µM): 0.447
- relative viability (AGI-6780 + Vorinostat; first compound 8 µM): 0.434
- relative viability (AGI-6780 + Pemetrexed; first compound 0.08 µM): 0.793
- relative viability (AGI-6780 + Pemetrexed; first compound 0.253 µM): 0.809
- relative viability (AGI-6780 + Pemetrexed; first compound 0.8 µM): 0.816
- relative viability (AGI-6780 + Pemetrexed; first compound 8 µM): 0.868
